Measurements taken from patent US10689354B2, “Aminoazole derivative” (Teijin Pharma Limited, priority 2015, dated 2020).

target: T1, androgen receptor (AR-LBD) (Rattus norvegicus, UniProt P15207); test: Evaluation of androgen receptor affinity (PolarScreen Androgen Receptor Competitor Assay Kit, Red; fluorescence polarization); conditions: 22° C. for 5 hours, relative to binding rate of 1 μM DHT, read-out: AR affinity (pEC50) (converted)
T1 construct: 5 μL of 2×AR-LBD/Fluoromone AL Red Complex contained in the kit; purchased Invitrogen
T1 sequence (P15207 651-882 limits assumed): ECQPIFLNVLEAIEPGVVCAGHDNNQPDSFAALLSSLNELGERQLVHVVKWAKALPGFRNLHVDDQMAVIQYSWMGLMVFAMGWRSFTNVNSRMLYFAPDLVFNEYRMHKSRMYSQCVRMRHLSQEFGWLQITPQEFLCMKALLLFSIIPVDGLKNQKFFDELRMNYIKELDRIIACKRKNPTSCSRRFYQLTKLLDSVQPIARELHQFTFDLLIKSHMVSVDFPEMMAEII
Procedure: Evaluation of an Androgen Receptor Affinity
To examine the interaction of a compound with an androgen receptor, evaluation was carried out in accordance with the following procedure using PolarScreen™ Androgen Receptor Competitor Assay Kit, Red (Invitrogen). To 2 wells each of a 384 well black plate was added 5 μL of the compound solution. To each well was added 5 μL of 2×AR-LBD/Fluoromone AL Red Complex contained in the kit and the samples were reacted at 22° C. for 5 hours. After 5 hours of the reaction, fluorescence polarization was measured and the affinity was evaluated. The affinity of the compound was determined by comparing to the binding rate of 1 μM of dihydrotestosterone (DHT), and quantified the logarithm value (pEC50) of reciprocal value of the effective concentration of the compound which is equal to 50% of the binding rate by applying a 4 parameter goodness-of-fit calculation.

Compound | EC50 [µM]
Cc1sc(N(C[C@H]2CCC[C@@H](CO)C2)c2ccc(C(F)(F)F)cc2)nc1C(=O)NS(C)(=O)=O (racemic) [Compound 348, 2-[N-[[cis-3-(hydroxymethyl)cyclohexyl]methyl]-4-(trifluoromethyl)anilino]-5-methyl-N-methylsulfonyl-thiazole-4-carboxamide] | 1.26
CO[C@@H]1CCC[C@H](CN(c2ccc(C#N)cc2)c2nc(C(=O)NS(C)(=O)=O)c(C)s2)C1 (racemic) [Compound 349, 2-[4-cyano-N-[[cis-3-methoxycyclohexyl]methyl]anilino]-5-methyl-N-methylsulfonyl-thiazole-4-carboxamide] | 0.501
Cc1sc(N(C[C@@H]2CCCC[C@H]2O)c2ccc(C#N)cc2)nc1C(=O)NS(C)(=O)=O (racemic) [Compound 411, 2-[4-cyano-N-[[trans-2-hydroxycyclohexyl]methyl]anilino]-5-methyl-N-methylsulfonyl-thiazole-4-carboxamide] | 0.794
Cc1sc(N(Cc2ccccc2C#N)c2ccc(C#N)cc2)nc1C(=O)NS(C)(=O)=O [Compound 8, 2-[4-cyano-N-[(2-cyanophenyl)methyl]anilino]-5-methyl-N-methylsulfonyl-thiazole-4-carboxamide] | > 2
COc1ccc(N(Cc2ccccc2)c2nc(C(=O)NS(C)(=O)=O)c(C)s2)cc1 [Compound 21, 2-(N-benzyl-4-methoxy-anilino)-5-methyl-N-methylsulfonyl-thiazole-4-carboxamide] | 1.58
COCCOc1ccc(N(Cc2ccccc2)c2nc(C(=O)NS(C)(=O)=O)c(C)s2)cc1 [Compound 22, 2-[N-benzyl-4-(2-methoxyethoxy)anilino]-5-methyl-N-methylsulfonyl-thiazole-4-carboxamide] | 0.501
Cc1sc(N(Cc2ccccc2)c2cccc(F)c2)nc1C(=O)NS(C)(=O)=O [Compound 29, 2-(N-benzyl-3-fluoro-anilino)-5-methyl-N-methylsulfonyl-thiazole-4-carboxamide] | > 2
Cc1sc(N(Cc2ccccc2)c2ccccc2F)nc1C(=O)NS(C)(=O)=O [Compound 30, 2-(N-benzyl-2-fluoro-anilino)-5-methyl-N-methylsulfonyl-thiazole-4-carboxamide] | > 2
Cc1sc(N(Cc2ccccc2)c2cccc(OC(F)(F)F)c2)nc1C(=O)NS(C)(=O)=O [Compound 35, 2-[N-benzyl-3-(trifluoromethoxy)anilino]-5-methyl-N-methylsulfonyl-thiazole-4-carboxamide] | > 2
Cc1sc(N(Cc2ccccc2)c2ccc(OCc3ccccc3)cc2)nc1C(=O)NS(C)(=O)=O [Compound 38, 2-(N-benzyl-4-benzyloxy-anilino)-5-methyl-N-methylsulfonyl-thiazole-4-carboxamide] | > 2
Cc1sc(N(Cc2ccccn2)c2ccc(C#N)cc2)nc1C(=O)NS(C)(=O)=O [Compound 42, 2-[4-cyano-N-(2-pyridylmethyl)anilino]-5-methyl-N-methylsulfonyl-thiazole-4-carboxamide] | > 2
Cc1sc(N(Cc2cccnc2)c2ccc(C#N)cc2)nc1C(=O)NS(C)(=O)=O [Compound 43, 2-[4-cyano-N-(3-pyridylmethyl)anilino]-5-methyl-N-methylsulfonyl-thiazole-4-carboxamide] | > 2
Cc1sc(N(Cc2ccncc2)c2ccc(C#N)cc2)nc1C(=O)NS(C)(=O)=O [Compound 44, 2-[4-cyano-N-(4-pyridylmethyl)anilino]-5-methyl-N-methylsulfonyl-thiazole-4-carboxamide] | > 2
COc1ccccc1N(Cc1ccccc1)c1nc(C(=O)NS(C)(=O)=O)c(C)s1 [Compound 47, 2-(N-benzyl-2-methoxy-anilino)-5-methyl-N-methylsulfonyl-thiazole-4-carboxamide] | > 2
Cc1sc(N(Cc2ccccc2)c2ccc(F)c(F)c2)nc1C(=O)NS(C)(=O)=O [Compound 48, 2-(N-benzyl-3,4-difluoro-anilino)-5-methyl-N-methylsulfonyl-thiazole-4-carboxamide] | 0.398
Cc1sc(N(Cc2ccccc2)c2cccnc2)nc1C(=O)NS(C)(=O)=O [Compound 49, 2-[benzyl(3-pyridyl)amino]-5-methyl-N-methylsulfonyl-thiazole-4-carboxamide] | > 2
Cc1sc(N(Cc2ccccc2)c2cccc3cccnc23)nc1C(=O)NS(C)(=O)=O [Compound 53, 2-[benzyl(8-quinolyl)amino]-5-methyl-N-methylsulfonyl-thiazole-4-carboxamide] | > 2
Cc1sc(N(Cc2ccccc2)c2cnccn2)nc1C(=O)NS(C)(=O)=O [Compound 55, 2-[benzyl(pyrazin-2-yl)amino]-5-methyl-N-methylsulfonyl-thiazole-4-carboxamide] | > 2
Cc1sc(N(c2ccc(C#N)cc2)C(C)c2ccccc2)nc1C(=O)NS(C)(=O)=O (stereo not shown) [Compound 58, 2-[4-cyano-N-(1-phenylethyl)anilino]-5-methyl-N-methylsulfonyl-thiazole-4-carboxamide] | > 2
Cc1sc(N(CC2CC2)c2ccc(C#N)cc2)nc1C(=O)NS(C)(=O)=O [Compound 67, 2-[4-cyano-N-(cyclopropylmethyl)anilino]-5-methyl-N-methylsulfonyl-thiazole-4-carboxamide] | > 2
Cc1sc(N(Cc2ccccc2)c2cccc(-n3cncn3)c2)nc1C(=O)NS(C)(=O)=O [Compound 71, 2-[N-benzyl-3-(1,2,4-triazol-1-yl)anilino]-5-methyl-N-methylsulfonyl-thiazole-4-carboxamide] | > 2

Continued, values first:

EC50 [µM] | Compound
1.26 | Cc1sc(N(C[C@H]2CCC[C@@H](CO)C2)c2ccc(C#N)cc2)nc1C(=O)NS(C)(=O)=O (racemic) [Compound 347, 2-[4-cyano-N-[[cis-3-(hydroxymethyl)cyclohexyl]methyl]anilino]-5-methyl-N-methylsulfonyl-thiazole-4-carboxamide]
0.251 | Cc1sc(N(CC[C@@H]2CC[C@@H](F)C2)c2ccc(C#N)cc2)nc1C(=O)NS(C)(=O)=O (racemic) [Compound 453, 2-[4-cyano-N-[2-[trans-3-fluorocyclopentyl]ethyl]anilino]-5-methyl-N-methylsulfonyl-thiazole-4-carboxamide]
> 2 | Cc1sc(N(CC[C@H]2C[C@H](O)CO2)c2ccc(C#N)cc2)nc1C(=O)NS(C)(=O)=O (racemic) [Compound 457, 2-[4-cyano-N-[2-[trans-4-hydroxytetrahydrofuran-2-yl]ethyl]anilino]-5-methyl-N-methylsulfonyl-thiazole-4-carboxamide]
1.26 | Cc1sc(N(CC[C@@H]2CC[C@@H](O)C2)c2ccc(C#N)cc2)nc1C(=O)NS(C)(=O)=O (racemic) [Compound 459, 2-[4-cyano-N-[2-[trans-3-hydroxycyclopentyl]ethyl]anilino]-5-methyl-N-methylsulfonyl-thiazole-4-carboxamide]
> 2 | Cc1sc(N(Cc2ccccc2)c2ccccc2OC(F)(F)F)nc1C(=O)NS(C)(=O)=O [Compound 27, 2-[N-benzyl-2-(trifluoromethoxy)anilino]-5-methyl-N-methylsulfonyl-thiazole-4-carboxamide]
1 | Cc1sc(N(Cc2ccccc2)c2ccc(F)cc2)nc1C(=O)NS(C)(=O)=O [Compound 28, 2-(N-benzyl-4-fluoro-anilino)-5-methyl-N-methylsulfonyl-thiazole-4-carboxamide]
> 2 | Cc1sc(N(Cc2ccccc2)c2cccc(Cl)c2)nc1C(=O)NS(C)(=O)=O [Compound 32, 2-(N-benzyl-3-chloro-anilino)-5-methyl-N-methylsulfonyl-thiazole-4-carboxamide]
> 2 | Cc1sc(N(Cc2ccccc2)c2ccccc2Cl)nc1C(=O)NS(C)(=O)=O [Compound 33, 2-(N-benzyl-2-chloro-anilino)-5-methyl-N-methylsulfonyl-thiazole-4-carboxamide]
1.26 | Cc1sc(N(Cc2ccccc2)c2ccc(F)cc2F)nc1C(=O)NS(C)(=O)=O [Compound 36, 2-(N-benzyl-2,4-difluoro-anilino)-5-methyl-N-methylsulfonyl-thiazole-4-carboxamide]
> 2 | Cc1sc(N(C)c2ccc(C#N)cc2)nc1C(=O)NS(C)(=O)=O [Compound 60, 2-(4-cyano-N-methyl-anilino)-5-methyl-N-methylsulfonyl-thiazole-4-carboxamide]
1.58 | Cc1sc(N(CCc2ccc(O)cc2)c2ccc(C#N)cc2)nc1C(=O)NS(C)(=O)=O [Compound 62, 2-[4-cyano-N-[2-(4-hydroxyphenyl)ethyl]anilino]-5-methyl-N-methylsulfonyl-thiazole-4-carboxamide]
> 2 | Cc1sc(N(CC(=O)C(C)(C)C)c2ccc(C#N)cc2)nc1C(=O)NS(C)(=O)=O [Compound 63, 2-(4-cyano-N-(3,3-dimethyl-2-oxo-butyl)anilino)-5-methyl-N-methylsulfonyl-thiazole-4-carboxamide]
> 2 | Cc1sc(N(CC(=O)N2CCCCC2)c2ccc(C#N)cc2)nc1C(=O)NS(C)(=O)=O [Compound 72, 2-(4-cyano-N-[2-oxo-2-(1-piperidyl)ethyl]anilino)-5-methyl-N-methylsulfonyl-thiazole-4-carboxamide]
